Assay results taken from PMC7027498, “A small molecule chaperone rescues the stability and activity of a cancer‐associated variant of NAD(P)H:quinone oxidoreductase 1 in vitro” (Febs Letters, 2019).

Tests used:
[1] = biological target: T1, NQO1 WT (NAD(P)H:quinone oxidoreductase 1) (Homo sapiens, UniProt P15559); experiment: ThermoFAD thermal shift; assay type: binding; conditions: 2 mM BPPSA, 50 mM HEPES pH 7.0
T1 construct: codon-optimised gene in pET28a, E. coli; FAD-containing homodimer

[2] = biological target: T1, NQO1 WT (NAD(P)H:quinone oxidoreductase 1); experiment: NADH-menadione reductase assay, absorbance at […] nm; assay type: biochemical
[3] = biological target: T2, NQO1 WT (NAD(P)H:quinone oxidoreductase 1) (Homo sapiens, UniProt P15559, P187S); experiment: NADH-menadione reductase assay, absorbance at […] nm; assay type: biochemical
T2 construct: codon-optimised gene in pET28a, E. coli; FAD-containing homodimer

[4] = biological target: T2, NQO1 WT (NAD(P)H:quinone oxidoreductase 1); experiment: ThermoFAD thermal shift; assay type: binding; conditions: 2 mM BPPSA, 50 mM HEPES pH 7.0
[5] = biological target: T2, NQO1 WT (NAD(P)H:quinone oxidoreductase 1); experiment: isothermal titration calorimetry; assay type: binding; conditions: read-out: dissociation constant
Excerpt: (§1) isothermal titration calorimetry on NQO1 WT (NAD(P)H:quinone oxidoreductase 1) | dissociation constants for the binding of BPPSA to the wild‐type and P187S variant

[6] = biological target: T1, NQO1 WT (NAD(P)H:quinone oxidoreductase 1); experiment: isothermal titration calorimetry; assay type: binding; conditions: read-out: dissociation constant
Excerpt: as §1

[7] = biological target: T1, NQO1 WT (NAD(P)H:quinone oxidoreductase 1); experiment: crystal structure, […] Å; assay type: binding; conditions: co-crystal with BPPSA; FAD in all four chains

increase in melting temperature [1] [°C]	IC50 [2] [µM]	IC50 [3] [µM]	increase in melting temperature [4] [°C]	Kd [5] [µM]	Kd [6] [µM]	Compound	crystal structure, 2.76 Å [7]
1	8.6 ± 1.1	26.2 ± 1.2	2.5	20 ± 0.41	7.95 ± 0.8	O=S(=O)(Nc1ccccc1Br)N1CCCC1 [BPPSA, N‐(2‐bromophenyl)pyrrolidine‐1‐sulfonamide]	
						Cc1cc2nc3c(=O)[nH]c(=O)nc-3n(C[C@H](O)[C@H](O)[C@H](O)COP(=O)(O)OP(=O)(O)OC[C@H]3O[C@@H](n4cnc5c(N)ncnc54)[C@H](O)[C@@H]3O)c2cc1C [FAD]	Clear residual electron density was observed for FAD bound to each of the four chains
